Results: patent US20020165233A1, “Quinoxaline containing medicaments for post exposure prophylaxis of an HIV infection” (priority 1999, published 2002)

Tested on: RT-SHIV
Assay: Plasma viral load (quantitative RNA PCR) after post-exposure prophylaxis
Format: in vivo, rhesus monkeys
Method: Nine rhesus monkeys (male, 2 years old, 2-3 kg) were seronegative for SIV, Simian T cell Leukemia Virus (STLV), B virus and Type D retroviruses. 15 mg/kg body weight of COMPOUND A was subcutaneously administered into animals twice a day (12 h interval) for 28 d. Animals were divided into three groups. All animals were intravenously administered with 100 TCID50 of RT-SHIV The first group consisted of three animals treated with COMPOUND A from 8 h post exposure for 28 d. The second group of animals was treated with COMPOUND A from 24 h post exposure for 28 d. The third group (control) received the solvent that was used to dissolve COMPOUND A (PEG400:glycerol:water=[…]) from 8 h post exposure for 28 d.
Blood was collected from all the animals either just before or 2 h after the drug administration on 0, 3, 7, 10, 14, 21, 29 d post exposure in order to check the drug concentration, otherwise in intervals of 2 to 8 weeks. Biopsy of inguinal lymph nodes was conducted on 17 d or 18 d and 8 weeks post exposure in two animals per group. Cerebrospinal fluid (CSF) was collected from the animals just before biopsy.
Determination of Plasma Viral Load:
Viral RNA was purified from plasma with a commercial viral RNA isolation kit (Boehringer Mannheim). Gag cDNA was PCR amplified with a commercial RNA PCR kit (Boehringer Mannheim) with the gag primers SG05i (5′-ACTGCTGATTCAAAATGCiMCC-3′), SG06i (5′-CTACTGGTCTiCTCCAAAGAGAGAATTG-3′) according to the protocol by Piatak et al. (Biotechniques 14, 70-81-1993) with modifications. Amplified gag DNA was separated by 2% agarose electrophoresis and cyber green stained DNA was analyzed with a fluorescence image analyzer (FLA2000, Fuji Photo Film). Quantitative determination of the viral RNA copy number was calculated using external standards.

CC[C@H]1C(=O)Nc2ccc(F)cc2N1C(=O)OC(C)C [Compound A, (3S)-ethyl-6-fluoro-4-isopropyloxycarbonyl-3,4-dihydroquinoxalin-2(1H)-one]
animals with a short active viral replication (4 weeks after cessation of treatment): 50 % of the animals | viral replication (plasma viral RNA, proviral DNA, infectious cells in PBMC) (during the treatment and the following 3 weeks, all treated animals): inhibited at a level below the sensitivity of the assays | viral infection in animal #5 (plasma viral RNA, proviral DNA and QVI methods): no viral infection was observed | duration of immune-system assisted control following exposure (rhesus macaques): at least 40 weeks | viral replication (plasma viral RNA level) (subsequent to active replication around 10 weeks, up to 40 weeks post exposure, RNA PCR detection level): ≤ 1000 copy/ml
